Series [1] relates to K. pneumoniae ATCC 10031. Put plainly: Biofilm initial cell attachment assay. The series is classed as cell-based, Klebsiella pneumoniae. As to conditions: 2 h; for concentration of total reduction in biofilm attachment (antibiofilm MIC): initial cell attachment, 37 °C, peptides 50-1.56 μM, absorbance 570 nm. As to the method:
We also investigated the ability of peptides to interfere with biofilm using three different assays (refer to the Section 4) against K. pneumonia and E. coli.
Figure 3 The effect of Hylin-a1, AR-23, and RV-23 on the initial cell attachment of biofilm formation. […] Statistical analysis was performed by One-way ANOVA followed by Dunnett’s multiple comparisons test.
The anti-biofilm activity of peptides was evaluated against E. coli and K. pneumoniae ATCC strains. Bacterial cultures were grown overnight, then diluted to an OD600 of 0.1 in MH broth supplemented with 1% (v/v) glucose. A 100 μL aliquot of the bacterial suspension was combined with an equal volume of peptides at non-cytotoxic concentrations in a 96-well plate and incubated at 37 °C for 2 h. Following incubation, non-adherent planktonic cells were removed by washing with phosphate-buffered saline (PBS, Microtech), and adherent cells were incubated with MTT solution for 3 h at 37 °C. Additionally, adherent cells were collected, resuspended in PBS, and plated on agar for viable cell counting. Serial dilutions were performed for each peptide, and CFU/mL were determined after 20 h of incubation at 37 °C (Figure S2). Absorbance was measured at 570 nm to evaluate adhesion percentage.

Series [2] has as its system K. pneumoniae ATCC 10031. Kind of series: Time-kill assay. The class given is cell-based, Klebsiella pneumoniae. As to the method: (§1) This in vitro method allows for assessing the kinetics of bacterial killing by peptides over time. […] Specifically, at each time point, 50 μL aliquots of the bacterial–peptide mixtures were collected and plated on agar (see Materials and Methods for further details). Following incubation, colony-forming units (CFUs) were counted and the killing rate of each peptide concentration was calculated (Figure 2).
(§2) Figure 2 Evaluation of the kinetic-killing effect of Hylin-a1, AR-23, and RV-23 against K. pneumoniae and E. coli. […] Untreated bacteria was used as control negative (CTR- in black).
(§3) Using the same conditions as the MIC assay, a time–kill test was performed to monitor bacterial growth over time. […] Finally, bacterial colonies were counted, and the CFU/mL was calculated.

The test system of series [3] is E. coli ATCC 25992. Put plainly: Time-kill assay. The series is classed as cell-based, Escherichia coli. Here is the method: as §1, §2, §3
Another series can be described thus: Serum stability assay. The conditions noted are these: 10% FBS. The series is classed as in vitro ADME, bovine. Here is the method: The susceptibility of Hylin-a1, AR-23, and RV-23 to proteolytic degradation in serum was evaluated, following the protocol reported in Section 4.3.
Figure 6 AMP stability in serum. Stability profiles of Hylin-a1 (red line), AR-23 (gray line), and RV-23 (black line) are reported. All stability tests were performed at least in triplicate. LC-MS analyses were performed using an Agilent 1260 Infinity II LC/MSD system (Milan, Italy). The percentages of intact peptides after different time points of incubation in serum were determined by integrating RP-HPLC peaks from the chromatograms recorded at a wavelength of 210 nm. The test was performed in triplicate, and the data are presented as mean values, with error bars representing standard deviations.
Peptides were mixed with 10% FBS at a final concentration of 0.2 mg/mL and incubated in a water bath at 37 °C. […] Then, the mixture was diluted with 0.1% TFA in H2O (1:1). Samples were characterized using LC-MS on a C18 Aeris Peptide column (100 × 2.1 mm), applying a linear gradient from 5 to 80% solvent B (0.1% TFA in CH3CN) over solvent A (0.1% TFA in water) in 15 min at a flow rate of 0.2 mL/min. All stability tests were performed at least in triplicate. LC-MS analyses were performed using an Agilent 1260 Infinity II LC/MSD system (Milan, Italy).

In a further series the test system is E. coli. Kind of series: Checkerboard assay with meropenem. The conditions noted are these: for MIC of peptide in combination with meropenem: checkerboard, 20 h, OD600.
Series [4] has as its system E. coli ATCC 25992. The conditions noted are these: for MBC: colonies' growth on agar plates after microdilution, N/D = not detected antibacterial activity; for MIC: microdilution (NCCLS), MH broth, 5 × 10^5 CFU/mL, 37 °C, 20 h, absorbance, 50 to 1.56 μM. Here is the method: (§4) The three peptides were tested for their antibacterial activity. […] As described in the Materials and Methods section, the antibacterial effect of peptides was investigated using a microdilution assay. Each concentration of AMPs was inoculated with bacteria in 96-well plates and incubated at 37 °C for 20 h. After that, MIC values were determined by analyzing absorbance and expressed as a percentage of inhibition. MBC was assessed by observing the colonies’ growth on agar plates, as described elsewhere.
(§5) Each strain was grown in Mueller Hinton Broth (MH Broth), and 5 × 10^5 CFU/mL was used to evaluate antibacterial activity. Clinical carbapenem-resistant K. pneumoniae and E. coli isolates were collected at the AOU of Virology and Microbiology of the University of Campania “Luigi Vanvitelli”.
(§6) The antimicrobial activity of Hylin-a1, AR-23, and RV-23 was investigated using a microdilution assay as reported by the National Committee on Clinical Laboratory Standards (NCCLS) guidelines against a broad spectrum of Gram-negative bacteria. […] In 96-well, the standardized bacterial inoculum (5 × 10^5 colony forming units, CFU/mL) was inoculated together with AMPs and incubated at 37 °C for 20 h. After the time of incubation, optical density (OD) was measured at TECAN, and data were expressed as a percentage of inhibition. In addition to assessing the MIC values, the bactericidal effect was also studied as reported elsewhere.
A general note: Broth dilution looks for growth in wells or tubes with falling amounts of substance.

Series [5] has as its system K. pneumoniae ATCC 10031. The conditions noted are these: for MBC: colonies' growth on agar plates after microdilution, N/D = not detected antibacterial activity; for MIC: microdilution (NCCLS), MH broth, 5 × 10^5 CFU/mL, 37 °C, 20 h, absorbance, 50 to 1.56 μM. As to the method:
as §4, §5, §6

Two substances from publication PMC12024264, “Frog Skin Peptides Hylin-a1, AR-23, and RV-23: Promising Tools Against Carbapenem-Resistant Escherichia coli and Klebsiella pneumoniae Infections” (Antibiotics, 2025) can be followed below.

Where no end group is shown, it is not given here.

What is called share remaining is the share of the starting amount still present when the sample was taken. In general, MBC refers to the lowest tested concentration that kills the bacteria rather than only halting them. Lower therefore signals greater bactericidal potency. What is called MIC is the lowest concentration found to suppress growth. Lower therefore signals a more susceptible organism. Turning to IFGAILPLALGALKNLIK-NH2 [Hylin-a1], in the series on K. pneumoniae ATCC 10031 [1] (at 50 μM), the “reduction of biofilm (initial attachment)” value is on record as 80–100%. Further, the “concentration of total reduction in biofilm attachment (antibiofilm MIC)” value in the series with K. pneumoniae ATCC 10031 [1] turned out to be 50 µM. Also, the “bacterial killing in time-kill assay” value in the series with K. pneumoniae ATCC 10031 [2] and in the series with E. coli ATCC 25992 [3] was “kills bacteria” throughout. Also, the fraction remaining at 16 h in the series “Serum stability assay” (serum, after 16 h, 0.2 mg/mL, 37 °C, RP-HPLC peaks at 210 nm, mean of triplicate, read-out: intact peptide remaining in solution) came out at 60%. Also, in the series with E. coli, the “MIC of peptide in combination with meropenem” value stood at 3.125 µM. For the same substance, in the series on E. coli (interpretation of FICI by Table 4), the “combinatory effect of peptide and meropenem” value is listed as “partial synergism”. In addition, the figures for the MBC against E. coli ATCC 25992 [4] and against K. pneumoniae ATCC 10031 [5] were 25 µM and 6.25 µM, respectively. Further, the minimum inhibitory concentration (MIC) against E. coli ATCC 25992 [4] came out at 25 µM; against K. pneumoniae ATCC 10031 [5], 6.25 µM.
As usually defined, the half-life is the time in which the quantity being followed falls by half. As for RIGVLLARLPKLFSLFKLMGKKV-NH2 [RV-23], in the series with K. pneumoniae ATCC 10031 [1], the “concentration of total reduction in biofilm attachment (antibiofilm MIC)” value stood at 50 µM. The “time to significant reduction in bacterial viability / bactericidal effect” value in the series with K. pneumoniae ATCC 10031 [2] and in the series with E. coli ATCC 25992 [3] was at most 2 h each time. For the same substance, the “percentage of intact fragments, almost constant up to 24 h” value in the series “Serum stability assay” (0.2 mg/mL, 37 °C, RP-HPLC peaks at 210 nm, mean of triplicate, after the first 2 h up to 24 h) is listed as “around 30%”. The substance further showed a half-life in the series “Serum stability assay” (serum, peptide 0.2 mg/mL, 37 °C water bath, ethanol precipitation, LC-MS, RP-HPLC peak integration at 210 nm, at least triplicate) below 2 h. In addition, the “MIC of peptide in combination with meropenem” value with E. coli was determined as 6.25 µM. Besides, the MBC against E. coli ATCC 25992 [4] and against K. pneumoniae ATCC 10031 [5] was 12.5 µM in each case. For the same substance, the MIC with E. coli ATCC 25992 [4] was 12.5 µM; in the series with K. pneumoniae ATCC 10031 [5], 6.25 µM.
